A short description of data set [1]: Liver microsomal stability, human. The format is in vitro ADME. The following applies: pH 7.4. Here is the method: (§1) The compound was mixed with 0.5 mg/ml human liver microsome (Thermal Fisher) at a final concentration of 1 µM in 100 mM potassium phosphate buffer, pH 7.4. The reactions were initiated by the addition of 1 mM NADPH. Samples in duplicate were incubated at 37 °C with mixing. 100 µL aliquots were transferred after 0, 5, 10, 30, 45, 60 minutes to a new tube with 300 µL acetonitrile, incubated on ice for 30 minutes, centrifuged at 1800×g at 4 °C for 10 minutes. The supernatants were transferred to glass vials subjected to LC/MS analysis. Peak areas were measured to calculate half-life according to the formula t1/2 = − 0.693/slope of linear regression analysis of ln [concentration] versus incubation time. Similar methods were applied to access mouse and rat liver microsomal stability of the compounds.
A general note: Liver microsomes are a subcellular fraction often used to study metabolism.

Data set [2] has as its system IL-17 secretion from human PBMCs. In words: Human IL-17 production assay using human PBMC. The settings on record: cytostim stimulation 72 h. The format is cell-based. The method, then: To confirm cellular on-target effects, we investigated the inhibition of selected RORγ antagonists on RORγ-regulated IL-17 secretion using human PBMC. Human IL-17-producing cells were readily formed following cytostim stimulation. In human PBMC stimulated with cytostim for 72 h, differentiation of Th17 cells was confirmed by increased secretion of IL-17 (291 pg/mL) in cell culture supernatant compared to basal level of IL-17 (20 pg/mL IL-17 without cytostim stimulation), […] of IL-17 secretion.
Human PBMCs (Zenbio) in TexMACS media were stimulated by cytostim (Miltenyi) for 72 h following the vendor's instruction. Human IL-17A in cell culture supernatant was measured using AlphaLISA human IL-17A Biotin-free detection kit (Perkin Elmer) according to the manufacturer’s protocol.

Data set [3] can be described thus: Liver microsomal stability, rat. It is filed as in vitro ADME. The following applies: liver microsomes, pH 7.4, read-out: Liver microsomal stability, t1/2, Rat. Here is the method: as §1
The next data set has as its target T1, RORγ LBD (Homo sapiens, UniProt P51449).
T1 construct: The assay was performed with GST-tag RORγ LBD (25 ng/reaction, Creative Biomart); purchased Creative Biomart
T1 sequence (P51449 269-508 limits assumed): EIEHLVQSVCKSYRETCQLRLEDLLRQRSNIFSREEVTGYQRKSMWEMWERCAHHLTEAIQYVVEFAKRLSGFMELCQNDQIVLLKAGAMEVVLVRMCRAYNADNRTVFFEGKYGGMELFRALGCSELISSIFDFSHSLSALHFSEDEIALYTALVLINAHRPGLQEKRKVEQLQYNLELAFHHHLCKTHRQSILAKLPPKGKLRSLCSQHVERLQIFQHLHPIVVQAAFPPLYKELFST
In words: LanthaScreen TR-FRET human RORγ coactivator assay. The format is biochemical. The settings on record: antagonist mode, read-out: Binding of RORγ LBD, IC50. From the text:
In LanthaScreen TR-FRET RORγ coactivator assay, the RORγ LBD was constitutively active and the coactivator peptide (fluorescein-D22) was recruited in the absence of ligand, or compound (Fig. 2a). The binding of an antagonist to RORγ LBD causes a conformational change of the receptor, leading to a decrease in the affinity of the receptor for the coactivator peptide. The separation of the fluorescently labeled coactivator peptide from RORγ LBD from the receptor with the terbium-labeled antibody causes a decrease in the TR-FRET signal compared to those without compound. The assay was validated by detecting the ligand-independent recruitment of coactivator peptide in the presence or absence of RORγ LBD (2.5- to 3-fold assay window). Effects of the key compounds of the novel chemotype in Fig. 1, were tested in LanthaScreen TR-FRET RORγ coactivator assay.
The assay was performed with GST-tag RORγ LBD (25 ng/reaction, Creative Biomart), 0.6 μM Fluorescein-D22 coactivator peptide and 8 nM Tb anti-GST antibody (Invitrogen) at room temperature for 60 minutes. The fluorescent signals were measured with 520 nm emission and 495 nm excitation on Tecan Infinite. The data were calculated using DMSO control as 0% inhibition and non-protein control as 100% inhibition. IC50 values were calculated using non-linear regression analysis of GraphPad Prism in all assays.
In general terms: In TR-FRET formats the signal depends on donor and acceptor labels being close together.

The next data set in a line: Oral PK in SD rats. It is filed as in vivo. The settings on record: male, rat, plasma; for AUC: read-out: Exposure in SD Rat, AUC; for Cmax: read-out: Exposure in SD Rat, Cmax; for half-life: read-out: Exposure in SD Rat, t1/2 (converted). Here is the method: Compounds were dissolved in 5% DMSO, 5% tween 80 and then added 90% saline. Male SD rats were dosed with the compound via oral (2 mg/kg or 5 mg/kg) routes, respectively after fasting overnight. Blood of the animals were collected at indicated time post dosing. Blood samples were then prepared for plasma and analyzed for the compounds using validated LC/MS assays. The experimental protocol used in this study was approved by IACUC. The experiments were conducted in accordance with the Guiding Principles for the Care and Use of Laboratory Animals and complied with the ARRIVE guidelines.

Data set [4] is described as follows: Liver microsomal stability, mouse. The settings on record: liver microsomes, pH 7.4, read-out: Liver microsomal stability, t1/2, Mouse. The format is in vitro ADME. The method, then:
as §1

Data set [5] has as its system IMQ-induced mouse psoriasis-like inflammation model. Set-up: method as in PMID 26870941. The following applies: 1% GSK2981278 ointment vs placebo + IMQ control; cited from earlier work.
Data set [6] deals with psoriasis. Set-up: method as in PMID 29150844. The settings on record: ointment 0.03%, 0.1%, 0.8% and 4%, all doses; cited from earlier work.
Data set [7] deals with psoriasis. The arrangement: method as in PMID 27852111. The settings on record: oral, phase 2a, cited from earlier work.
[8] abbreviates: human, liver microsomes, 1 µM compound, 0.5 mg/ml microsome, NADPH, 37 °C, read-out: Liver microsomal stability, t1/2, Human.

Structures are written as SMILES. Like-named read-outs stand apart in the source and are kept apart here.

As to `CCS(=O)(=O)c1ccc(Cc2nc3c(Cl)c(-c4ccccc4OC(F)(F)F)c(Cl)cc3[nH]2)c(Cl)c1` [Compound 1, 4,6-dichloro-2-(2-chloro-4-(ethylsulfonyl)benzyl)-5-(2-(trifluoromethoxy)phenyl)-1H-benzo[d]imidazole], the half-life at 1 µM in data set [1] (setting [8]) is > 120 min. It took 30 ± 10 nM to reach a half-maximal effect in [2] (EC50). Besides, in data set [3], the half-life at 1 µM was > 120 min. For the same molecule, the IC50 – broadly, the concentration at which inhibition is half-maximal – on RORγ LBD was found to be 62 ± 18 nM. In “Oral PK in SD rats” (5 mg/kg oral), the AUC (usually the area under the concentration-time curve, a measure of exposure) was 6980 ng·h/mL; the highest concentration (Cmax) (as a rule, the highest concentration seen after dosing) turned out to be 446 ng/mL; the half-life was 768 min.
Take `CCS(=O)(=O)c1ccc(Cc2nc3c(Cl)c(N4CCC(F)(F)CC4)c(Cl)cc3[nH]2)cc1` [Compound 2, 4,6-dichloro-5-(4,4-difluoropiperidin-1-yl)-2-(4-(ethylsulfonyl)benzyl)-1H-benzo[d]imidazole]: the half-life at 1 µM is 7.8 min in data set [4]; 18.5 min in [1] (setting [8]); 7.8 to 34.5 min in data set [1] (range across human, rat and mouse liver microsomes, read-out: t1/2 in human, rat and mouse liver microsome stability assays); 34.5 min in [3]. Moreover, the half-maximal effective concentration (EC50) (as a rule, the concentration at which the effect is half-maximal) in data set [2] was 46 ± 2 nM. The half-inhibitory concentration (IC50) on RORγ LBD amounted to 40 ± 27 nM. Also, the AUC in the data set “Oral PK in SD rats” (2 mg/kg oral) came to 352 ng·h/mL. Besides, in the data set “Oral PK in SD rats” (2 mg/kg oral), the Cmax came out at 70 ng/mL. In addition, the half-life in “Oral PK in SD rats” (2 mg/kg oral) was 120 min.
Turning to `CCc1ccc(N(CC(C)C)S(=O)(=O)c2ccc(OCC3CCOCC3)c(CO)c2)cc1` [GSK2981278], the “reduction of epithermal thickness” value in data set [5] is given as 23%. In addition, in the data set on psoriasis [6], the Infiltrate thickness result is “not changed”.
On to `CCS(=O)(=O)c1ccc(CNC(=O)c2cnc3c(c2)CN(C[C@H]2CC[C@H](C(F)(F)F)CC2)[C@H]3C(C)C)nc1` [VTP43742], for which the “efficacy in psoriatic patients” value in the data set with psoriasis [7] (four-week period) was “clear signal of efficacy”. Also, the transaminase entry in the data set with psoriasis [7] is “elevations of reversible transaminase”.

Values taken from article PMC8080595, “Discovery of a novel RORγ antagonist with skin-restricted exposure for topical treatment of mild to moderate psoriasis” (Scientific Reports, 2021).
